Measurements reported in patent US10457637B2, “Benzenesulfonamide derivatives as inverse agonists of retinoid-related orphan receptor gamma (RORγ(T))” (GALDERMA RESEARCH & DEVELOPMENT, priority 2014, dated 2019).
pIC50: −log10 of the molar value.

How the values were obtained:
[1] = tested on: IL-17A secretion by CD4+ cells; assay: IL-17A secretion by CD4+ cells (HTRF); type: cell-based; conditions: 96 h; human CD4+ cells activated with anti-CD3 and anti-CD28, 4 days of incubation; read-out: IC50 hCD4/IL17
Method: This model allows measurement of the effect of inhibitors on IL-17A secretion by CD4+ cells. […] The amount of IL-17a secreted is measured by the TR-FRET (kit HTRF® Human Interleukin 17A (Cisbio, #64H17PEC)) technology.
The cells are rapidly thawed, resuspended in their culture medium (RPMI inactivated 10% FCS) supplemented with soluble anti-CD28 antibodies and seeded (100 000 cells/well) in 96-well plates precoated with anti-CD3 antibodies. The cells are then treated with the ranges of inhibitors to be tested (from 1000 nM to 0.05 nM, 0.1% DMSO). […] The IC50 values are calculated from a 4-parameter logistic model using the XLFit software (IDBS).

[2] = target: ROR gamma ligand-binding domain (hRORg) (Homo sapiens (Human), UniProt P51449); assay: GAL4-RORγ transactivation (luciferase reporter, HG5LN HeLa line); type: cell-based; conditions: 18 hours incubation
Sequence of ROR gamma ligand-binding domain (hRORg) (P51449 269-508): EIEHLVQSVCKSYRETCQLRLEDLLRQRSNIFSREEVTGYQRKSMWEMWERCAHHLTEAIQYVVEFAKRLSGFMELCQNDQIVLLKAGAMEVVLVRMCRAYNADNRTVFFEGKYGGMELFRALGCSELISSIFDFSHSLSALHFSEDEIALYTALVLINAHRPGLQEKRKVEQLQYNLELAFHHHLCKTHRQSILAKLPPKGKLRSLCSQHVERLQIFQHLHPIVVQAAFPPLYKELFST
Source text: GAL4-RORγ Transactivation
The RORγ transactivation model was developed from the line HG5LN, which is a HeLa line that stably expresses a luciferase reporter gene controlled by a pentamer of the GAL4 recognition domain of yeast and of a β-globin promoter. The HG5LN line was stably transfected by the DNA-binding domain (DBD) of GAL4 fused to the ROR gamma ligand-binding domain (LBD). Molecules that inhibit the ROR gamma constitutive activity reduce the luciferase expression, thus leading to a reduction in the emitted luminescence.
The cells are seeded in 384-well plates (5000 cells in 45 μL/well of culture medium containing 10% fetal calf serum) and incubated for 4 hours at 37° C., 5% CO2. 5 μL of the test molecules (compounds described in the tables described above) are then added to each well and the plates are incubated for 18 hours at a temperature of 37° C. under 5% of CO2. 20 μL of luciferase substrate (Promega) are added to each well and the luminescence emitted is read by a microplate reader.
The luminescence units (“RLU”) are normalized by positive controls (“POS” containing a saturated concentration of benzenesulfonamide, N-(2,2,2-trifluoroethyl)-N-[4-[2,2,2-trifluoro-1-hydroxy-1-(trifluoromethyl)ethyl]phenyl]) and negative controls (“NEG” containing DMSO): % inhibition=((RLU−NEG)*100)/(POS−NEG). The IC50 values are calculated from a 4-parameter logistic model using the XLFit software (IDBS).

pIC50 [1] | pIC50 [2] | SMILES
> 7.00 | > 7.00 | CCc1ccc(N(CC(C)C)S(=O)(=O)c2ccc(NCC3CSC3)c(S(C)(=N)=O)c2)cc1 (centres unmarked) [compound 99, N-(4-ethylphenyl)-N-isobutyl-3-(S-methylsulfonimidoyl)-4-((thietan-3-ylmethyl)amino)benzenesulfonamide]
 | > 7.00 | CCc1ccc(N(CC(C)C)S(=O)(=O)c2ccc(N3CC4(COC4)C3)c(S(C)(=N)=O)c2)cc1 (centres unmarked) [compound 111, N-(4-ethylphenyl)-N-isobutyl-3-(S-methylsulfonimidoyl)-4-(2-oxa-6-azaspiro[3.3]heptan-6-yl)benzenesulfonamide]
> 7.00 | 6.00 to 7.00 | CCc1ccc(N(CC(C)C)S(=O)(=O)c2ccc(N3CCC4(COC4)C3)c(S(C)(=N)=O)c2)cc1 (centres unmarked) [compound 112, N-(4-ethylphenyl)-N-isobutyl-3-(S-methylsulfonimidoyl)-4-(2-oxa-6-azaspiro[3.4]octan-6-yl)benzenesulfonamide]
 | 6.00 to 7.00 | CCc1ccc(N(CC(C)C)S(=O)(=O)c2ccc(N3CC4(C3)CS(=O)(=O)C4)c(S(C)(=N)=O)c2)cc1 (centres unmarked) [compound 113, 4-(2,2-dioxido-2-thia-6-azaspiro[3.3]heptan-6-yl)-N-(4-ethylphenyl)-N-isobutyl-3-(S-methylsulfonimidoyl)benzenesulfonamide]
 | 6.00 to 7.00 | CCc1ccc(N(CC(C)C)S(=O)(=O)c2ccc(N3CCC4(CC3)COC4)c(S(C)(=N)=O)c2)cc1 (centres unmarked) [compound 114, N-(4-ethylphenyl)-N-isobutyl-3-(S-methylsulfonimidoyl)-4-(2-oxa-7-azaspiro[3.5]nonan-7-yl)benzenesulfonamide]
 | 6.00 to 7.00 | CCc1ccc(N(CC(C)C)S(=O)(=O)c2ccc(N3C[C@H]4C[C@@H]3CO4)c(S(C)(=N)=O)c2)cc1 (stereo partly drawn) [compound 115, 4-((1R,4R)-2-oxa-5-azabicyclo[2.2.1]heptan-5-yl)-N-(4-ethylphenyl)-N-isobutyl-3-(S-methylsulfonimidoyl)benzenesulfonamide]
> 7.00 | > 7.00 | CCc1ccc(N(CC(C)C)S(=O)(=O)c2ccc(N3CCOCC3)c(S(C)(=N)=O)c2)cc1 (centres unmarked) [compound 123, N-(4-ethylphenyl)-N-isobutyl-3-(S-methylsulfonimidoyl)-4-morpholinobenzenesulfonamide]
 | < 6.00 | CCc1ccc(N(CC(C)C)S(=O)(=O)c2ccc(NCC3(CC)COC3)c(S(C)(=N)=O)c2)cc1 (centres unmarked) [compound 126, 4-(((3-ethyloxetan-3-yl)methyl)amino)-N-(4-ethylphenyl)-N-isobutyl-3-(S-methylsulfonimidoyl)benzenesulfonamide]
 | 6.00 to 7.00 | CCc1ccc(N(CC(C)C)S(=O)(=O)c2ccc(NCc3ccnc(OC)c3)c(S(C)(=N)=O)c2)cc1 (centres unmarked) [compound 127, N-(4-ethylphenyl)-N-isobutyl-4-(((2-methoxypyridin-4-yl)methyl)amino)-3-(S-methylsulfonimidoyl)benzenesulfonamide]
 | < 6.00 | CCc1ccc(N(CC(C)C)S(=O)(=O)c2ccc(NCC3(N4CCCC4)COC3)c(S(C)(=N)=O)c2)cc1 (centres unmarked) [compound 132, N-(4-ethylphenyl)-N-isobutyl-3-(S-methylsulfonimidoyl)-4-(((3-(pyrrolidin-1-yl)oxetan-3-yl)methyl)amino)benzenesulfonamide]

The remaining lines, values behind:

SMILES | pIC50 [1] | pIC50 [2]
CCc1ccc(N(CC(C)C)S(=O)(=O)c2ccc(OCC3CCOCC3)c(S(=N)(=O)CC)c2)cc1 (centres unmarked) [compound 18, N-(4-ethylphenyl)-N-isobutyl-3-ethanesulfoximino-4-(tetrahydropyran-4-ylmethoxy)benzenesulfonamide] | > 7.00 | 
CCc1ccc(N(CC(C)C)S(=O)(=O)c2ccc(OCC3(F)CCOCC3)c(S(C)(=N)=O)c2)cc1 (centres unmarked) [compound 30, N-(4-ethylphenyl)-4-((4-fluorotetrahydro-2H-pyran-4-yl)methoxy)-N-isobutyl-3-(S-methylsulfonimidoyl)benzenesulfonamide] | > 7.00 | > 7.00
CCc1ccc(N(CC(C)C)S(=O)(=O)c2ccc(NCC3CCOCC3)c(S(C)(=N)=O)c2)cc1 (centres unmarked) [compound 52, N-(4-ethylphenyl)-N-isobutyl-3-(S-methysulfonimidoyl)-4-[(tetrahydropyran-4-ylmethyl)amino]benzenesulfonamide] | > 7.00 | 
CCc1ccc(N(CC(C)C)S(=O)(=O)c2ccc(NCc3ccncc3)c(S(C)(=N)=O)c2)cc1 (centres unmarked) [compound 64, N-(4-ethylphenyl)-N-isobutyl-3-(S-methylsulfonimidoyl)-4-((pyridin-4-ylmethyl)amino)benzenesulfonamide] | > 7.00 | > 7.00
CCc1ccc(N(CC(C)C)S(=O)(=O)c2ccc(OCC3CCOCC3)c(S(N)(=O)=O)c2)cc1 [compound 66, 4-(tetrahydropyran-4-ylmethoxy)benzene-1,3-disulfonic acid 3-amide 1-[(4-ethylphenyl)isobutylamide]] | > 7.00 | 
CCc1ccc(N(CC(C)C)S(=O)(=O)c2ccc(N3CCSCC3)c(S(C)(=N)=O)c2)cc1 (centres unmarked) [compound 87, N-(4-ethylphenyl)-N-isobutyl-3-(S-methylsulfonimidoyl)-4-thiomorpholinobenzenesulfonamide] | > 7.00 | > 7.00
CCc1ccc(N(CC(C)C)S(=O)(=O)c2ccc(NC[C@@H]3[C@H]4COC[C@@H]34)c(S(C)(=N)=O)c2)cc1 (stereo partly drawn) [compound 91, 4-((((1R,5S,6S)-3-oxabicyclo[3.1.0]hexan-6-yl)methyl)amino)-N-(4-ethylphenyl)-N-isobutyl-3-(S-methylsulfonimidoyl)benzenesulfonamide] | > 7.00 | > 7.00
CCc1ccc(N(CC(C)C)S(=O)(=O)c2ccc(N3CCOC[C@H]3C)c(S(C)(=N)=O)c2)cc1 (stereo partly drawn) [compound 103, N-(4-ethylphenyl)-N-isobutyl-4-((R)-3-methylmorpholino)-3-(S-methylsulfonimidoyl)benzenesulfonamide] | < 6.00 | < 6.00
CCc1ccc(N(CC(C)C)S(=O)(=O)c2ccc(N3CC4(CN(C(=O)OC(C)(C)C)C4)C3)c(S(C)(=N)=O)c2)cc1 (centres unmarked) [compound 110, tert-butyl 6-(4-(N-(4-ethylphenyl)-N-isobutylsulfamoyl)-2-(S-methylsulfonimidoyl)phenyl)-2,6-diazaspiro[3.3]heptane-2-carboxylate] |  | < 6.00
CCc1ccc(N(CC(C)C)S(=O)(=O)c2ccc(N3CC4CC3CO4)c(S(C)(=N)=O)c2)cc1 [compound 117, 4-((1R,4R)-2-oxa-5-azabicyclo[2.2.1]heptan-5-yl)-N-(4-ethylphenyl)-N-isobutyl-3-(S-methylsulfonimidoyl)benzenesulfonamide] |  | 6.00 to 7.00
CCc1ccc(N(CC(C)C)S(=O)(=O)c2ccc(NCc3nn[nH]n3)c(S(C)(=N)=O)c2)cc1 (centres unmarked) [compound 118, 4-(((2H-tetrazol-5-yl)methyl)amino)-N-(4-ethylphenyl)-N-isobutyl-3-(S-methylsulfonimidoyl)benzenesulfonamide] |  | < 6.00
CCc1ccc(N(CC(C)C)S(=O)(=O)c2ccc(N3CC4(CNC4)C3)c(S(C)(=N)=O)c2)cc1 (centres unmarked) [compound 121, -(4-ethylphenyl)-N-isobutyl-3-(S-methylsulfonimidoyl)-4-(2,6-diazaspiro[3.3]heptan-2-yl)benzenesulfonamide] |  | < 6.00
CCc1ccc(N(CC(C)C)S(=O)(=O)c2ccc(N3CC4(CN(C(C)=O)C4)C3)c(S(C)(=N)=O)c2)cc1 (centres unmarked) [compound 122, 4-(6-acetyl-2,6-diazaspiro[3.3]heptan-2-yl)-N-(4-ethylphenyl)-N-isobutyl-3-(S-methylsulfonimidoyl)benzenesulfonamide] |  | < 6.00
CCc1ccc(N(CC(C)C)S(=O)(=O)c2ccc(NCC3(CC)CCOCC3)c(S(C)(=N)=O)c2)cc1 (centres unmarked) [compound 124, N-(4-ethylphenyl)-4-(((4-ethyltetrahydro-2H-pyran-4-yl)methyl)amino)-N-isobutyl-3-(S-methylsulfonimidoyl)benzenesulfonamide] | > 7.00 | 
CCc1ccc(N(CC(C)C)S(=O)(=O)c2ccc(N3CCCOCC3)c(S(C)(=N)=O)c2)cc1 (centres unmarked) [compound 137, N-(4-ethylphenyl)-N-isobutyl-3-(S-methylsulfonimidoyl)-4-(1,4-oxazepan-4-yl)benzenesulfonamide] |  | 6.00 to 7.00
CCc1ccc(N(CC(C)C)S(=O)(=O)c2ccc(N3CCNCC3)c(S(C)(=N)=O)c2)cc1 (centres unmarked) [compound 140, N-(4-ethylphenyl)-N-isobutyl-3-(S-methylsulfonimidoyl)-4-(piperazin-1-yl)benzenesulfonamide] |  | < 6.00
COc1ccc(N(C(C)C)S(=O)(=O)c2ccc(OCC3CCOCC3)c(S(C)(=N)=O)c2)c(C)c1 (centres unmarked) [compound 143, N-isopropyl-N-(4-methoxy-2-methylphenyl)-3-(S-methylsulfonimidoyl)-4-((tetrahydro-2H-pyran-4-yl)methoxy)benzenesulfonamide] |  | 6.00 to 7.00
